Experimental findings from patent US20040034084A1, “Methods for using JNK inhibitors for treating or preventing disease-related wasting” (Celgene Corporation, priority 2002, published 2004) are described below.

pIC50: −log10 of the molar value.

The target of data set [1] is T1, His6-JNK3 (Homo sapiens, UniProt P53779).
T1 construct: His6 (N)
As to the kind of experiment: JNK assay (c-Jun phosphorylation), JNK3. It is filed as biochemical. Conditions: read-out: IC50 for JNK3 (c-Jun phosphorylation reduced to 50% of control). On the procedure:
To 10 μL of 5-amino-anthra(9,1-cd)isothiazol-6-one in 20% DMSO/80% dilution buffer containing of 20 mM HEPES (pH 7.6), 0.1 mM EDTA, 2.5 mM magnesium chloride, 0.004% Triton ×100, 2 μg/mL leupeptin, 20 mM β-glycerolphosphate, 0.1 mM sodium vanadate, and 2 mM DTT in water was added 30 μL of 50-200 ng His6-JNK1, JNK2, or JNK3 in the same dilution buffer. The mixture was pre-incubated for 30 minutes at room temperature. Sixty microliter of 10 μg GST-c-Jun(1-79) in assay buffer consisting of 20 mM HEPES (pH 7.6), 50 mM sodium chloride, 0.1 mM EDTA, 24 mM magnesium chloride, 1 mM DTT, 25 mM PNPP, 0.05% Triton ×100, 11 μM ATP, and 0.5 μCi γ-32P ATP in water was added and the reaction was allowed to proceed for 1 hour at room temperature. The c-Jun phosphorylation was terminated by addition of 150 μL of 12.5% trichloroacetic acid. After 30 minutes, the precipitate was harvested onto a filter plate, diluted with 50 μL of the scintillation fluid and quantified by a counter. The IC50 values were calculated as the concentration of 5-amino-anthra(9,1-cd)isothiazol-6-one at which the c-Jun phosphorylation was reduced to 50% of the control value. Compounds that inhibit JNK preferably have an IC50 value ranging 0.01-10 μM in this assay. 5-Amino-anthra(9,1-cd)isothiazol-6-one has an IC50 according to this assay of 1 μM for JNK2 and 400 nM for JNK3.

The nature of data set [2]: Solubility in aqueous media (remark). It is filed as physicochemical.

T1 sequence (P53779 whole entry): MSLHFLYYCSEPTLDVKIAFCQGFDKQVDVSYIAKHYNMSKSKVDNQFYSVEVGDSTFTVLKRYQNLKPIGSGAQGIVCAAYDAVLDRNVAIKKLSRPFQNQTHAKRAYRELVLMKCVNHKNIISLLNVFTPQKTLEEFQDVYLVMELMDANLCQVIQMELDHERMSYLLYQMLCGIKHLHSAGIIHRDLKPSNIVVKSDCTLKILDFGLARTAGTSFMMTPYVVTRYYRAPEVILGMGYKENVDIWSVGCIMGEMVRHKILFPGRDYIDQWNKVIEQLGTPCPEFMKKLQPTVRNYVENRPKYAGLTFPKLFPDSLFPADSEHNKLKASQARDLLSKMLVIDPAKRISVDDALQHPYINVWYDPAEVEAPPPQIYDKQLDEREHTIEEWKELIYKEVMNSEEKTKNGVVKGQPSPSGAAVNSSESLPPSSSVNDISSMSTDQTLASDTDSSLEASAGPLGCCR

As usually defined, the pIC50 is the IC50 on a negative log10 scale, so that one unit is a factor of ten. As to `Nc1ccc2snc3c2c1C(=O)c1ccccc1-3` [5-amino-anthra(9,1-cd)isothiazol-6-one], the pIC50 in data set [1] is 6.40. Moreover, the “Solubility in aqueous media” value in data set [2] is reported as “limited solubility”.
